Source: patent US20260043028A1, “TREATMENT OF SPINAL MUSCULAR ATROPHY” (University of Pittsburgh - Of the Commonwealth System of …, priority 2023, published 2026)

Tested on: human patients with Type 3 SMA
Experiment: Four-week spinal cord stimulation (SCS) trial in SMA patients with or without concurrent SMA therapy (Nusinersen), with long-term follow-up
Assay type: in vivo
Source text: This example describes a particular method that can be used to treat SMA in a patient by applying a therapeutically effective amount of an electrical stimulus to the dorsolateral aspect of the spinal cord containing sensory neurons innervating a body region of the patient with motor impairment due to SMA. Although particular methods and protocols are provided, one skilled in the art will appreciate that variations can be made without substantially affecting the treatment. Three patients with SMA were identified and participated in this spinal cord stimulation trial. […]
Three human patients with Type 3 SMA that show quantifiable motor deficits of the legs are selected for treatment. […]
This example aims to measure immediate, end-of-study, and long-term effects of SCS on SMA including various clinical outcomes. […] As used herein, “immediate” refers to effects measured during the four-week study and relates to the usage of SCS. […] As used herein, “end-of-study” refers to effects measured within about 1 week before or after the end of the four-week study, around the time that the SCS electrodes are removed. […] In particular, as used herein, “long-term” refers to effects measured 50+ days after the electrodes are removed and relates to changes in motor ability over time without the continuous application of SCS. […]

Nusinersen
results throughout the course of the four-week experiment, compared with the patient not treated with an SMA therapy (SMA02 and SMA03 (Nusinersen plus SCS) vs SMA01 (SCS only), during the four-week experiment): did not exhibit substantially better results | long-term course of the beneficial effects of SCS (SMA02 and SMA03 on SMA therapy during SCS, long-term follow-up (50+ days after explant), SMA01 without therapy showed long-term degradation): long-term stability in the beneficial effects of SCS
